According to publication PMC11963566, “A phase I, single-center, randomized, open-label, three-period crossover study to evaluate the drug–drug interaction between ZSP1273 and oseltamivir in healthy Chinese subjects” (Antimicrobial Agents and Chemotherapy, 2025):
Where two headings read alike, the source gives them in different places.

Key:
[1] = cited from earlier work
[2] = for AUC0-t,ss / AUC0-τ,ss / AUC0-∞,ss / CLss/F / Cmax,ss / Vz/F / t1/2,ss / λz / Ctrough: arithmetic mean ± SD; for Tmax,ss: median (minimum, maximum)
[3] = clinical; conditions: human
[4] = cited from earlier work; remark: listed apart in the source
[5] = doses up to 1,200 mg; cited from earlier work
[6] = test system: influenza A; conditions: adult patients, especially 600 mg once per day; cited from earlier work
[7] = test system: influenza A (2009 H1N1); conditions: compared with oseltamivir or pimodivir; cited from earlier work
[8] = Safety assessment: adverse events (CTCAE 5.0, MedDRA 23.1) in healthy subjects; type: in vivo, human
Procedure: Safety assessment was conducted from the first administration of the investigational drug until the end of the trial. Safety indicators included adverse events (AEs), serious adverse events (SAEs), clinical laboratory tests (hematology, biochemistry, and urinalysis), vital signs, physical examination, and 12-lead electrocardiogram.
The severity of AE was assessed according to the CTCAE 5.0 standard and includes grades 1 to 5. Based on the criteria for determining causality between drugs and adverse events, the relationship was classified into five levels: definitely related, probably related, possibly related, probably not related, definitely not related. Among them, definitely related, probably related, and possibly related are defined as drug-related AEs.
Adverse events were coded using Med DRA 23.1 Chinese ([30]) and analyzed based on system organ class (SOC) and preferred term (PT). Adverse events during the treatment period, drug-related adverse events, and serious adverse events were described by frequency, number of cases (n), and incidence rate (%) according to SOC, PT, and the highest severity classification.

[9] = all subjects, no-effect boundary 80%–125%
[10] = co-administration ZSP1273 600 mg QD + oseltamivir 75 mg BID, oral, 5 days, plasma, day 5
[11] = co-administration ZSP1273 + oseltamivir, plasma, day 5
[12] = co-administration versus monotherapy analysis
[13] = monotherapy (ZSP1273 600 mg QD or oseltamivir 75 mg BID, oral, 5 days), plasma, day 5
[14] = subjects with AUC_%Extrap >20.0% or Rsq <0.800 excluded
[15] = SOC Gastrointestinal disorders, probably related
[16] = SOC General disorders and administration site conditions, possibly related
[17] = SOC Infections and infestations, probably not related
[18] = SOC Investigations, possibly related
[19] = SOC Investigations, probably not related
[20] = SOC Skin and subcutaneous tissue disorders, possibly related
[21] = healthy subjects, 5 days dosing

CCC(CC)O[C@@H]1C=C(C(=O)O)C[C@H](N)[C@H]1NC(C)=O [Oseltamivir carboxylate, oseltamivir carboxylate]
plasma protein binding rate [1]: approximately 3% | AUC0-∞,ss, geometric mean ratio co-administration/monotherapy [2, 9]: 87.1% | AUC0-t,ss, geometric mean ratio co-administration/monotherapy ([2]; human, in vivo): 86.7% | AUC0-τ,ss, geometric mean ratio co-administration/monotherapy ([2]; human, in vivo): 83.3% | AUC0-∞,ss, intra-individual coefficient of variation ([2]; human, in vivo): 8.4% | Cmax,ss, geometric mean ratio co-administration/monotherapy ([2]; human, in vivo): 80.4% | AUC(0-t) ([3]; in vivo, AUC0-t,ss, geometric mean): 5080 ng·h/mL | AUC ([3]; in vivo, AUC0-τ,ss, geometric mean): 3320 ng·h/mL | AUC(0-inf) ([3]; in vivo, AUC0-∞,ss, geometric mean): 5170 ng·h/mL | Cmax ([3]; in vivo, Cmax,ss, geometric mean): 393 ng/mL | Tmax ([3]; in vivo, po, Tmax,ss): 4 h | half-life ([3]; in vivo, po, t1/2,ss): 10.3 ± 1.6 h | k el ([3]; plasma, po, 75 mg): 1.92e-05 s⁻¹ | fraction excreted by the kidneys [4]: more than 99%

O=C(O)[C@H]1C2CCC(CC2)[C@@H]1Nc1nc(-c2n[nH]c3ncc(F)cc23)nc(C2CC2)c1F [ZSP1273]
safety in healthy volunteers [5]: no apparent safety concerns were noticed | efficacy versus placebo [6]: higher efficacy than placebo in ameliorating influenza symptoms and lowering the viral load | pulmonary viral loads and mortality [7]: effectively reduced pulmonary viral loads and mortality | plasma protein binding rate ([1]; in humans, not measured in this study, no reference given): greater than 98.9% | AUC0-∞,ss, intra-individual coefficient of variation ([2]; all subjects): 23.4% | AUC0-∞,ss, geometric mean ratio co-administration/monotherapy [2, 9]: 91.8% | AUC0-t,ss [2, 10]: 14,939.0 ± 6,027.0 (40.3%) h*ng/mL | AUC0-τ,ss [2, 10]: 13,656.5 ± 4,758.0 (34.8%) h*ng/mL | AUC0-∞,ss [2, 10]: 15,865.8 ± 6,635.4 (41.8%) h*ng/mL | CLss/F [2, 10]: 48.6 ± 15.3 (31.4%) L/h | Cmax,ss [2, 10]: 6,270.0 ± 3,369.7 (53.7%) ng/mL | Vz/F [2, 10]: 923.8 ± 659.5 (71.4%) L | t1/2,ss [2, 10]: 14.0 ± 10.3 (73.5%) h | λz [2, 10]: 0.070 ± 0.041 (58.7%) 1 /h | Tmax,ss [2, 10]: 1.50 (0.25, 4.00) h | Ctrough ([2]; co-administration ZSP1273 600 mg QD + oseltamivir 75 mg BID, oral, 5 days, plasma): 77.7 ± 49.7 (64.0%) ng/mL | AUC0-t,ss, geometric mean [2, 11]: 13,926.7 h*ng/mL | AUC0-τ,ss, geometric mean [2, 11]: 12,964.7 h*ng/mL | Cmax,ss, geometric mean [2, 11]: 5,466.0 ng/mL | AUC0-∞,ss, geometric mean ([2]; co-administration ZSP1273 + oseltamivir, plasma, day 5, all subjects): 14,749.3 h*ng/mL | AUC0-t,ss, intra-individual coefficient of variation [2, 12]: 19.9% | AUC0-τ,ss, intra-individual coefficient of variation [2, 12]: 18.6% | Cmax,ss, intra-individual coefficient of variation [2, 12]: 49.2% | AUC0-∞,ss, geometric mean ([2]; co-administration, subjects with AUC_%Extrap >20.0% or Rsq <0.800 excluded): 14,219.8^b h*ng/mL | AUC0-t,ss, geometric mean ratio co-administration/monotherapy ([2]; human, in vivo): 92.8% | AUC0-τ,ss, geometric mean ratio co-administration/monotherapy ([2]; human, in vivo): 96.3% | Cmax,ss, geometric mean ratio co-administration/monotherapy ([2]; human, in vivo): 99.9% | AUC0-t,ss [2, 13]: 16,529.6 ± 7,808.2 (47.2%) h*ng/mL | AUC0-τ,ss [2, 13]: 14,487.1 ± 5,519.8 (38.1%) h*ng/mL | AUC0-∞,ss [2, 13]: 18,392.1 ± 12,058.8 (65.6%) h*ng/mL | CLss/F [2, 13]: 47.4 ± 17.8 (37.5%) L/h | Vz/F [2, 13]: 1,006.5 ± 1,265.7 (125.8%) L | t1/2,ss [2, 13]: 17.8 ± 33.6 (189.1%) h | λz [2, 13]: 0.074 ± 0.046 (62.5%) 1 /h | Tmax,ss [2, 13]: 0.88 (0.25, 4.01) h | Ctrough ([2]; monotherapy (ZSP1273 600 mg QD or oseltamivir 75 mg BID, oral, 5 days), plasma): 86.3 ± 77.4 (89.6%) ng/mL | Cmax,ss ([2]; monotherapy (ZSP1273 tablets 600 mg QD or oseltamivir capsules 75 mg BID, oral, 5 days), plasma, day 5): 6,421.7 ± 3,660.6 (57.0%) ng/mL | AUC0-t,ss, geometric mean ([2]; monotherapy, plasma, day 5): 15,031.4 h*ng/mL | AUC0-τ,ss, geometric mean ([2]; monotherapy, plasma, day 5): 13,543.4 h*ng/mL | Cmax,ss, geometric mean ([2]; monotherapy, plasma, day 5): 5,517.1 ng/mL | AUC0-∞,ss, geometric mean ([2]; monotherapy, plasma, day 5, all subjects): 16,036.9 h*ng/mL | AUC0-∞,ss, geometric mean ([2]; monotherapy, subjects with AUC_%Extrap >20.0% or Rsq <0.800 excluded): 15,576.5^a h*ng/mL | AUC0-∞,ss, geometric mean ratio co-administration/monotherapy [2, 14]: 94.5% | AUC0-∞,ss, intra-individual coefficient of variation [2, 14]: 18.8% | Gastrointestinal disorders (SOC): Cases (%) ([8]; AE by system organ class): 5 (13.9) Cases (%) | Gastrointestinal disorders (SOC): Occurrences ([8]; AE by system organ class): 5 | General disorders and administration site conditions (SOC): Cases (%) ([8]; AE by system organ class): 0 Cases (%) | General disorders and administration site conditions (SOC): Occurrences ([8]; AE by system organ class): 0 | Infections and infestations (SOC): Cases (%) ([8]; AE by system organ class): 0 Cases (%) | Infections and infestations (SOC): Occurrences ([8]; AE by system organ class): 0 | Investigations (SOC): Cases (%) ([8]; AE by system organ class): 8 (22.2) Cases (%) | Investigations (SOC): Occurrences ([8]; AE by system organ class): 18 | Skin and subcutaneous tissue disorders (SOC): Cases (%) ([8]; AE by system organ class): 1 (2.8) Cases (%) | Skin and subcutaneous tissue disorders (SOC): Occurrences ([8]; AE by system organ class): 1 | Diarrhea: Cases (%) [8, 15]: 5 (13.9) Cases (%) | Diarrhea: Occurrences [8, 15]: 5 | Fever: Cases (%) [8, 16]: 0 Cases (%) | Fever: Occurrences [8, 16]: 0 | Upper respiratory tract infection (URTI): Cases (%) [8, 17]: 0 Cases (%) | Upper respiratory tract infection (URTI): Occurrences [8, 17]: 0 | Decreased blood triglycerides: Cases (%) [8, 18]: 0 Cases (%) | Decreased blood triglycerides: Occurrences [8, 18]: 0 | Decreased high-density lipoprotein (HDL): Cases (%) [8, 18]: 1 (2.8) Cases (%) | Decreased high-density lipoprotein (HDL): Occurrences [8, 18]: 1 | Decreased neutrophil count: Cases (%) [8, 18]: 0 Cases (%) | Decreased neutrophil count: Occurrences [8, 18]: 0 | Increased blood cholesterol: Cases (%) [8, 18]: 2 (5.6) Cases (%) | Increased blood cholesterol: Occurrences [8, 18]: 2 | Increased blood creatinine: Cases (%) [8, 18]: 3 (8.3) Cases (%) | Increased blood creatinine: Occurrences [8, 18]: 3 | Increased blood triglycerides: Cases (%) [8, 18]: 4 (11.1) Cases (%) | Increased blood triglycerides: Occurrences [8, 18]: 4 | Increased blood uric acid: Cases (%) [8, 18]: 2 (5.6) Cases (%) | Increased blood uric acid: Occurrences [8, 18]: 2 | Increased gamma-glutamyl transferase (GGT): Cases (%) [8, 18]: 1 (2.8) Cases (%) | Increased gamma-glutamyl transferase (GGT): Occurrences [8, 18]: 1 | Increased lipase: Cases (%) [8, 18]: 1 (2.8) Cases (%) | Increased lipase: Occurrences [8, 18]: 1 | Increased low-density lipoprotein (LDL): Cases (%) [8, 18]: 2 (5.6) Cases (%) | Increased low-density lipoprotein (LDL): Occurrences [8, 18]: 2 | Crystals present in urine: Cases (%) [8, 19]: 0 Cases (%) | Crystals present in urine: Occurrences [8, 19]: 0 | Decreased hemoglobin: Cases (%) [8, 19]: 2 (5.6) Cases (%) | Decreased hemoglobin: Occurrences [8, 19]: 2 | Increased urine specific gravity: Cases (%) [8, 19]: 0 Cases (%) | Increased urine specific gravity: Occurrences [8, 19]: 0 | Nitrites present in urine: Cases (%) [8, 19]: 0 Cases (%) | Nitrites present in urine: Occurrences [8, 19]: 0 | Positive urine occult blood: Cases (%) [8, 19]: 0 Cases (%) | Positive urine occult blood: Occurrences [8, 19]: 0 | Protein detected in urine: Cases (%) [8, 19]: 0 Cases (%) | Protein detected in urine: Occurrences [8, 19]: 0 | Acneiform dermatitis: Cases (%) [8, 20]: 0 Cases (%) | Acneiform dermatitis: Occurrences [8, 20]: 0 | Maculopapular rash: Cases (%) [8, 20]: 1 (2.8) Cases (%) | Maculopapular rash: Occurrences [8, 20]: 1 | diarrhea, incidence ([8]; drug-related adverse event): 13.9% | increased blood triglycerides, incidence ([8]; drug-related adverse event): 11.1% | subjects with drug-related adverse events, incidence ([8]; healthy subjects): 30.6% | At least one treatment-emergent adverse event (TEAE): Cases (%) [8, 21]: 12 (33.3) Cases (%) | At least one treatment-emergent adverse event (TEAE): Occurrences [8, 21]: 24 | At least one treatment-emergent adverse event related to drugs: Cases (%) [8, 21]: 11 (30.6) Cases (%) | At least one treatment-emergent adverse event related to drugs: Occurrences [8, 21]: 22
